# Earlier results, collected in patent US8840932B2, “Antiseptic compositions and methods” (priority 2002, dated 2014).
# Conditions: 25° C.
smiles,measurement,value
"II [elemental iodine, iodine]",solubility in water,0.03 wt-%
